{"source": "patent US12624354B2", "about": "“Methods and compositions for prime editing nucleotide sequences” (The Broad Institute, Inc., priority 2019, dated 2026)", "key": {"[1]": {"system": "different target sites in various cell lines", "experiment": "Efficiency of prime editors with truncated RT", "type": "cell-based", "excerpt": "FIG. 75 provides a bar graph comparing the efficiency (i.e., “% of total sequencing reads with the specified edit or indels”) of PE2, PE2-trunc, PE3, and PE3-trunc over different target sites in various cell lines.\nSee FIG. 75, which provides a bar graph comparing the efficiency (i.e., “% of total sequencing reads with the specified edit or indels”) of PE2, PE2-trunc, PE3, and PE3-trunc over different target sites in various cell lines."}, "[2]": {"system": "5′-Cy5-labeled dsDNA substrates", "experiment": "In vitro TPRT (prime editing) primer extension assay, denaturing urea PAGE", "type": "biochemical", "conditions": "non-nicked substrate, standard gRNA (gRNA_0, lane 3)", "experimental": "All reactions are with M-MLV RT.\nThen, the fluorescently labeled DNA substrate was added along with dNTPs and the RT enzyme. After 1 hour of incubation at 37° C., the reaction products were analyzed by denaturing urea-polyacrylamide gel electrophoresis (PAGE).\nHowever, the DNA substrates are not pre-nicked in this set of experiments. […] The reaction products were analyzed by denaturing urea-polyacrylamide gel electrophoresis (PAGE).\nReactions were incubated at 37° C. for 1 hour, then analyzed by denaturing urea PAGE and visualized for Cy5 fluorescence.\nReactions were allowed to proceed at 37° C. for 1 hour prior to separation by denaturing urea PAGE and visualization by Cy5 fluorescence."}, "[3]": {"system": "HEK cells", "experiment": "Npu intein-split prime editors, plasmid transfection, high-throughput sequencing", "type": "cell-based", "conditions": "HEK cells transfected with plasmids", "excerpt": "This Example is focused on a PE fusion protein comprising the canonical SpCas9 (SEQ ID NO: 18). The split sites for other Cas9 proteins may be the corresponding same site, or may need to be optimized for each different Cas9 protein. In the instant Example, the prime editor was split between residues 1023 and 1024 of SpCas9 (SEQ ID NO: 18). This is referred to as the “1023/1024” split site.\nPrime editors (PEs) exceed the AAV packaging capacity.\nIt was therefore determined whether mutation from the Cas9-native “SEQ” towards the Npu intein “CFN” sequence altered efficiency of prime editing.\nAlthough associated, unspliced editors may be active, perturbations of the sterics of the prime editor resulting from incomplete splicing during initiation steps may affect editing outcomes."}}, "data": [{"molecule": "PE2-trunc: Cas9 (H840A) fused to a truncated M-MLV reverse transcriptase with D200N, T306K, W313F, T330P; SEQ ID NO: 765", "values": [{"measurement": "efficiency (% of total sequencing reads with the specified edit or indels)", "setting": "[1]", "result": "about as efficient as the prime editors comprising the non-truncated RT proteins"}]}, {"molecule": "Cas9 nickase: Cas9 nickase (SpyCas9 H840A mutant)", "values": [{"measurement": "cleavage of the DNA strand", "setting": "[2]", "result": "efficiently cleaves the DNA strand"}]}, {"molecule": "1024-CFN: intein-split PE with Cas9 residues at 1024 mutated to the Npu intein CFN sequence (protein) MKRTADGSEFESPKKKRKVIKIATRKYLGKQNVYDIGVERDHNFALKNGFIASNCFNEIGKATAKYFFYSNIMNFFKTEITLANGEIRKRPLIETNGETGEIVWDKGRDFATVRKVLSMPQVNIVKKTEVQTGGFSKESILPKRNSDKLIARKKDWDPKKYGGFDSPTVAYSVLVVAKVEKGKSKKLKSVKELLGITIMERSSFEKNPIDFLEAKGYKEVKKDLIIKLPKYSLFELENGRKRMLASAGELQKGNELALPSKYVNFLYLASHYEKLKGSPEDNEQKQLFVEQHKHYLDEIIEQISEFSKRVILADANLDKVLSAYNKHRDKPIREQAENIIHLFTLTNLGAPAAFKYFDTTIDRKRYTSTKEVLDATLIHQSITGLYETRIDLSQLGGDSGGSSGGSSGSETPGTSESATPESSGGSSGGSSTLNIEDEYRLHETSKEPDVSLGSTWLSDFPQAWAETGGMGLAVRQAPLIIPLKATSTPVSIKQYPMSQEARLGIKPHIQRLLDQGILVPCQSPWNTPLLPVKKPGTNDYRPVQDLREVNKRVEDIHPTVPNPYNLLSGLPPSHQWYTVLDLKDAFFCLRLHPTSQPLFAFEWRDPEMGISGQLTWTRLPQGFKNSPTLFNEALHRDLADFRIQHPDLILLQYVDDLLLAATSELDCQQGTRALLQTLGNLGYRASAKKAQICQKQVKYLGYLLKEGQRWLTEARKETVMGQPTPKTPRQLREFLGKAGFCRLFIPGFAEMAAPLYPLTKPGTLFNWGPDQQKAYQEIKQALLTAPALGLPDLTKPFELFVDEKQGYAKGVLTQKLGPWRRPVAYLSKKLDPVAAGWPPCLRMVAAIAVLTKDAGKLTMGQPLVILAPHAVEALVKQPPDRWLSNARMTHYQALLLDTDRVQFGPVVALNPATLLPLPEEGLQHNCLDILAEAHGTRPDLTDQPLPDADHTWYTDGSSLLQEGQRKAGAAVTTETEVIWAKALPAGTSAQRAELIALTQALKMAEGKKLNVYTDSRYAFATAHIHGEIYRRRGWLTSEGKEIKNKDEILALLKALFLPKRLSIIHCPGHQKGHSAEARGNRMADQAARKAAITETPDTSTLLIENSSPSGGSKRTADGSEFEPKKKRK", "values": [{"measurement": "prime editing activity compared with full-length PE3", "setting": "[3]", "result": "recapitulates full-length PE3 activity"}]}]}
